From US8846709B2, “7-(3,5-dimethyl-4-isoxazolyl)-8-(methyloxy)-1H-imidazo[4,5-C]quinoline derivatives” (GlaxoSmithKline LLC, priority 2011, dated 2014) come the findings set out here.

The assay deals with LPS induced IL-6 secretion from whole blood. Description: Measurement of LPS Induced IL-6 Secretion from Whole Blood. Format: cell-based. The settings on record: IL-6 in whole blood, LPS 200 ng/ml, 24 hours. As to the method: Activation of monocytic cells by agonists of toll-like receptors such as bacterial lipopolysaccharide (LPS) results in production of key inflammatory mediators including IL-6. Such pathways are widely considered to be central to the pathophysiology of a range of auto-immune and inflammatory disorders.
Compounds to be tested are diluted to give a range of appropriate concentrations of which 1 μl of the diluted stocks is added to a 96 well plate. Following addition of whole blood (130 μl) the plates are incubated at 37 degrees (5% CO2) for 30 min before the addition of 10 μl of 2.8 ug/ml LPS, diluted in complete RPMI 1640 (final concentration=200 ng/ml), to give a total volume of 140 ul per well. After further incubation for 24 hours at 37 degrees, 140 μl of PBS are added to each well. The plates are sealed, shaken for 10 minutes and then centrifuged (2500 rpm×10 min). 100 μl of the supernatant are removed and IL-6 levels assayed by immunoassay (typically by MesoScale Discovery technology) either immediately or following storage at −20 degrees. Concentration response curves for each compound was generated from the data and an IC50 value was calculated

SMILES strings stand for the structures. A value given as a limit tells only on which side of the number the result lay.

Regarding `COc1cc2c(cc1-c1c(C)noc1C)ncc1nc(NCCO)n(CC3CCOCC3)c12` [Example 2, 2-{[7-(3,5-dimethyl-4-isoxazolyl)-8-(methyloxy)-1-(tetrahydro-2H-pyran-4-ylmethyl)-1H-imidazo[4,5-c]quinolin-2-yl]amino}ethanol], the concentration for half-maximal inhibition (IC50) was greater than 3.16 µM.
`COc1cc2c(cc1-c1c(C)noc1C)ncc1nc(NCCN)n(CC3CCOCC3)c12` [Example 8, N1-(7-(3,5-dimethylisoxazol-4-yl)-8-methoxy-1-((tetrahydro-2H-pyran-4-yl)methyl)-1H-imidazo[4,5-c]quinolin-2-yl)ethane-1,2-diamine] had an IC50 greater than 3.16 µM.

Broadly, the IC50 is the point on the concentration scale where inhibition reaches its midpoint. Read a low IC50 as higher potency.
